# Measured values as given in US9801898B2, “Glutamate dehydrogenase 1 inhibitors and methods of treating cancer” (Emory University, priority 2015, dated 2017).
# “Also recorded” adds a separate entry of the source.
# Experiments:
# [1] = target: T1, 6-phosphogluconate dehydrogenase (6PGD) (Homo sapiens, UniProt P52209); test: 6PGD enzyme activity in vitro; type: biochemical
# T1 sequence (P52209 1-483): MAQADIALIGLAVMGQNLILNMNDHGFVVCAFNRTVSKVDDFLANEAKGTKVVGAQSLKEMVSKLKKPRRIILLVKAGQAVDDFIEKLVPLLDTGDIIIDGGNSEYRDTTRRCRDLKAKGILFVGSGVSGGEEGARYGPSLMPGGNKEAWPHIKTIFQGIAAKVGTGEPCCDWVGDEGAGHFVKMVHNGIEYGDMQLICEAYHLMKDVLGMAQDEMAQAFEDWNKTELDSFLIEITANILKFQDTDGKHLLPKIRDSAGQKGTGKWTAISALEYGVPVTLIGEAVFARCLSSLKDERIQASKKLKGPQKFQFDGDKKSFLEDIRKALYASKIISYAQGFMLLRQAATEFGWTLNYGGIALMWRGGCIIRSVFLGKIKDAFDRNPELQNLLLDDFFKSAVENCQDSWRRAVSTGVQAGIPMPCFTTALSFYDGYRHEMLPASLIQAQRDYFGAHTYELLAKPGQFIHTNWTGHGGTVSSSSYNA
# fumarate hydratase (FH) = target: T2, fumarate hydratase (FH) (Homo sapiens, UniProt P07954); test: FH enzyme activity in vitro; type: biochemical
# T2 sequence (P07954 45-510): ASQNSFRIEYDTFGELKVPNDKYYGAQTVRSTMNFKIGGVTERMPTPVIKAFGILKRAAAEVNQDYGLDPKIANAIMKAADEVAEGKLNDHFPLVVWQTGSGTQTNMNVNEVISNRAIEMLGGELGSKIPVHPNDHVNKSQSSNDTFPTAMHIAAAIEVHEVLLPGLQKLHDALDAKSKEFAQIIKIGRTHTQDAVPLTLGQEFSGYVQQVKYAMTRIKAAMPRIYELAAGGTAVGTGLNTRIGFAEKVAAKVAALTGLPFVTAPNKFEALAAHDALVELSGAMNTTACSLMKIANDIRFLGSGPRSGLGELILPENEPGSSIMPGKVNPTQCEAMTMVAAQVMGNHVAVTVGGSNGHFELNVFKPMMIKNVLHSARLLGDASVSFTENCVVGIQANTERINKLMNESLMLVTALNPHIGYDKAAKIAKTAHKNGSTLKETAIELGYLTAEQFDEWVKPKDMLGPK
# GDH1 [2] = target: T3, GDH1 (Homo sapiens, UniProt P00367); details: cited from earlier work
# T3 sequence (P00367 54-558): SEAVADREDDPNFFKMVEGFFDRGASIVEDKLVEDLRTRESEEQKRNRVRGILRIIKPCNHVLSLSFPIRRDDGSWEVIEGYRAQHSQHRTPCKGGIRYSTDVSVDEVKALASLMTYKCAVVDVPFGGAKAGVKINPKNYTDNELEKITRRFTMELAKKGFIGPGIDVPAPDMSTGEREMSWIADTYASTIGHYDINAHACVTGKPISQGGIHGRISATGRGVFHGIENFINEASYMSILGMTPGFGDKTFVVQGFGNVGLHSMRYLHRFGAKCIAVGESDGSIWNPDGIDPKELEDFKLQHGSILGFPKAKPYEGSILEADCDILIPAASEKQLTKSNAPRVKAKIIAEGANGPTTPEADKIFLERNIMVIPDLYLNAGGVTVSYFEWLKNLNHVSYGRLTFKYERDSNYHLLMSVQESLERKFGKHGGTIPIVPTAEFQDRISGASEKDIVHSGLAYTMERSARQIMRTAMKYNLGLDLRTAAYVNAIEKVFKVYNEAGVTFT
# [3] = test system: H1299 and MDA-MB231 cells; test: Fumarate, GPx activity and ROS levels in R162-treated cells; type: cell-based, human
# Method: (§1) GDH1 enzyme activity assay was performed. Total cell lysates (20 microg) or 100 ng of purified GDH1 was added to a reaction mixture containing 50 mM triethanolamine (pH 8.0), 100 mM ammoniumacetate, 100 microM NADPH, and 2.6 mM EDTA. […] GPx, SOD, TRX, GSR, and CAT enzyme activities were determined by using commercially available kits from Biovision according to the manufacturer's instructions. PRX enzyme activity was assayed by coupling its activity to oxidation of NADPH via TRXs.
# [4] = test system: GDH1 knockdown cells (H1299, MDA-MB231); test: Rescue experiments in GDH1 knockdown cancer cells; type: cell-based, human
# Method: (§2) Adherent cells or leukemia cells were seeded in six-well plate, and cell numbers were determined by trypan blue exclusion using TC10 automated cell counter (Bio-Rad).
# [5] = test system: H1299 GDH1 knockdown xenograft; test: NAC rescue in H1299 GDH1 knockdown xenograft mice; type: in vivo; details: NAC 10 mg/ml drinking water
# Method: Nude mice (athymic nu/nu, female, 4-6 weeks old; Harlan) were subcutaneously injected with H1299 cells harboring empty vector on the left flank, and cells with stable knockdown of GDH1 on the right flank, respectively. For the NAC rescue experiment, mice of the NAC rescue group were treated with NAC drinking water at 10 mg/ml from 3 days after H1299-GDH1 shRNA cells injection for 42 days. […] Tumor growth was recorded by measurement of two perpendicular diameters of the tumors, and tumor size was calculated. The tumors were harvested and weighed at the experimental endpoint.
# Nude mice were subcutaneously injected with control H1299 cells harboring empty vector or GDH1 knockdown cells. NAC at a concentration of 10 mg/ml was administered via drinking water to half of the mice injected with GDH1 knockdown cells.
# GDH1 [6] = target: T3, GDH1; test: GDH1 enzyme activity assay with purified GDH1; type: biochemical; details: for potency and specificity for GDH1 inhibition in comparison of purpurin, R162 and EGCG: in vitro and in cancer cells; for inhibitory effect on GDH1 enzyme activity in vitro: purified GDH1
# Method: as §1
# GDH1 [7] = target: T3, GDH1; test: Thermal melt shift assay; type: binding; details: increasing concentrations of R162
# Method: To examine the interaction between GDH1 and R162, a thermal melt shift assay was performed.
# Cell permeability = type: in vitro ADME
# mitochondrial GDH = target: T4, mitochondrial GDH (Homo sapiens, UniProt P00367); test: GDH activity in cancer cells treated with compound; type: cell-based; details: compared with purpurin; R162 20 microM
# T4 construct: GDH activity in cancer cells treated with R162 (20 microM); endogenous in cells; host or cells: cancer cells (probably H1299 and MDA-MB231)
# T4 sequence (P00367 54-558): as above
# Method: as §1
# [8] = test system: H1299 and MDA-MB231 cells; test: Cell proliferation assay (cell counting); type: cell-based, human
# Method: as §2
# [9] = test system: human lung cancer, breast cancer, and leukemia cell lines; test: Cell viability in cancer cell lines; type: cell-based
# [10] = test system: HaCaT, MRC-5 and HFF cells; test: Cell viability in control proliferating human cells; type: cell-based; details: MRC-5, HFF control proliferative human cells
# [11] = test system: primary leukemia cells from myeloid leukemia patients; test: Cell viability of primary leukemia cells; type: cell-based, human
# [12] = test system: mononucleocytes in peripheral blood samples from healthy human donors; test: Cell viability of mononucleocytes from healthy donors; type: cell-based
# [13] = In vivo toxicity study (hematology, histopathology); parameters: species or system mice
# Method: The in vivo efficacy of R162 in the treatment of xenograft tumor mouse models was tested. For initial in vivo toxicity studies, 30 mg/kg/day of R162 was administered to mice for 30 days by intraperitoneal injection.
# H1299 xenograft = H1299 xenograft nude mice, R162 treatment; type: in vivo
# Method: Nude mice (athymic nu/nu, female, 4-6 weeks old; Harlan) were subcutaneously injected with H1299 cells harboring empty vector on the left flank, and cells with stable knockdown of GDH1 on the right flank, respectively. For the NAC rescue experiment, mice of the NAC rescue group were treated with NAC drinking water at 10 mg/ml from 3 days after H1299-GDH1 shRNA cells injection for 42 days. To evaluate the efficacy of R162, the drug was administered from a day after H1299 cells injection by daily intraperitoneal injection of 30 mg/kg for 35 days. Fifty percent of DMSO in PBS was as a diluent control. Tumor growth was recorded by measurement of two perpendicular diameters of the tumors, and tumor size was calculated. The tumors were harvested and weighed at the experimental endpoint. Tumor proliferation was determined by Ki-67 IHC staining.
# An in vivo R162 treatment was performed using H1299-xenograft nude mice. A day after xenograft injection, mice were divided into two groups (n=8 per group) and treated with either R162 ([…]) or control DMSO for 35 days.
# GPx1 [14] = target: T5, GPx1 (Homo sapiens, UniProt P07203); test: Radiometric 14C-fumarate/14C-alpha-KG-GPx1 binding assay
# T5 construct: made in house; host or cells: 293T cells (transfected)
# T5 sequence (P07203 1-203): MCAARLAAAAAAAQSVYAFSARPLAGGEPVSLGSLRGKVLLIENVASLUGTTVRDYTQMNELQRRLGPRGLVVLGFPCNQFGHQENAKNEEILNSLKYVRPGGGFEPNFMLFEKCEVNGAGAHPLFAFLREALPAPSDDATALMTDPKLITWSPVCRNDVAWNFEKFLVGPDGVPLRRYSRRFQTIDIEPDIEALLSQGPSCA
# Excerpt: The beads were then washed with TBS buffer. The bead-bound GPx1 protein was eluted with 10 microg flag peptides, and radioactivity was detected by liquid scintillation counting.
# GPx1 [15] = target: T5, GPx1; test: Activity of purified GPx1 in the presence of metabolites; type: biochemical; details: physiological concentrations of metabolite; GPx1 from mammalian cells or human erythrocytes
# Method: as §1
# GPx activity in GDH1 knockdown cells.
# GDH1 [16] = target: T3, GDH1; test: Tryptophan fluorescence binding assay; details: purified GDH1, tryptophan fluorescence binding
# Method: Purified GDH1 was incubated with increasing concentrations of purpurin.
# [17] = R162 20 mg/kg/day for 35 days vs control DMSO
smiles,measurement,setting,value
"O=C(O[C@@H]1Cc2c(O)cc(O)cc2O[C@@H]1c1cc(O)c(O)c(O)c1)c1cc(O)c(O)c(O)c1 [EGCG, epigallocatechin gallate]",effect on activity of 6PGD,[1],significantly affected activity
same,effect on activity of FH,fumarate hydratase (FH),significantly affected activity
same,GDH1 inhibition as reported,GDH1 [2],reported to inhibit GDH1 activity
"CC(=O)N[C@@H](CS)C(=O)O [NAC, N-acetylcysteine]","rescue of R162 effects (fumarate, GPx activity, ROS, cell proliferation)",[3]; R162-treated H1299 and MDA-MB231 cells,significantly rescued
same,rescue of increased ROS,[4],significantly rescued
same,rescue of reduced cell proliferation,[4],significantly rescued
same,rescue of attenuated tumor growth,[5],partially rescued
"C=CCc1ccc2c(c1O)C(=O)c1ccccc1C2=O [R162, 2-allyl-1-hydroxyanthracene-9,10-dione]",mode of inhibition (Lineweaver-Burk plot),GDH1 [6]; different concentrations of GDH1 substrate alpha-KG,mixed model inhibitor
same,"potency and specificity for GDH1 inhibition in comparison of purpurin, R162 and EGCG",GDH1 [6],more potent and specific
same,inhibitory effect on GDH1 enzyme activity in vitro,GDH1 [6],potent GDH1 inhibitor
same,melting temperature (Tm) of GDH1,GDH1 [7],raised the melting temperature (Tm) in a dose-dependent manner
same,cell permeability,Cell permeability,more cell-permeable than purpurin
same,inhibitory effect on mitochondrial GDH activity in cancer cells,mitochondrial GDH,more potent inhibitory effects
same,GPx activity,[3]; H1299 and MDA-MB231 cells,attenuated GPx activity
same,intracellular fumarate levels,[3]; H1299 and MDA-MB231 cells,decreased intracellular fumarate levels
same,ROS levels,"[3]; cancer cells (H1299, MDA-MB231) treated with R162",elevated ROS levels; also recorded: increased ROS levels
same,cell proliferation,[8],reduced cell proliferation
same,cell viability,[9],attenuated cell viability
same,cell viability,[10],but not in human proliferating cells
same,cell viability,[11],decreased cell viability
same,cell viability,[12],did not affect cell viability
same,histopathological change,"[13]; 30 mg/kg/day for 30 days, intraperitoneal, vs vehicle",did not result in a significant histopathological change
same,Basophils,"[13]; mice, 30 mg/kg/day",0.105 ± 0.06 ×10^3/μl
same,Eosinophils,"[13]; mice, 30 mg/kg/day",0.21 ± 0.07 ×10^3/μl
same,HCT,"[13]; mice, 30 mg/kg/day",45.95 ± 3.74%
same,HGB,"[13]; mice, 30 mg/kg/day",11.1 ± 1.55 g/dL
same,LYM,"[13]; mice, 30 mg/kg/day",3.145 ± 0.10 ×10^3/μl
same,MCH,"[13]; mice, 30 mg/kg/day",13.35 ± 0.91 pg
same,MCHC,"[13]; mice, 30 mg/kg/day",24.1 ± 1.41 g/dL
same,MCV,"[13]; mice, 30 mg/kg/day",55.35 ± 0.49 fL
same,MONO,"[13]; mice, 30 mg/kg/day",0.165 ± 0.007 ×10^3/μl
same,MPV,"[13]; mice, 30 mg/kg/day",6.05 ± 0.21 fL
same,NEU,"[13]; mice, 30 mg/kg/day",1.71 ± 0.18 ×10^3/μl
same,RBC,"[13]; mice, 30 mg/kg/day",8.3 ± 0.60 ×10^6/μl
same,RDW,"[13]; mice, 30 mg/kg/day",18.5 ± 0.56%
same,WBC,"[13]; mice, 30 mg/kg/day",5.33 ± 0.41 ×10^3/μl
same,tumor growth,H1299 xenograft; [17],significantly decreased
same,tumor masses,H1299 xenograft; [17],significantly decreased
same,GDH1 activity in resected tumors,H1299 xenograft; xenograft nude mice,effectively inhibited GDH1 activity
O=C(O)/C=C/C(=O)O [fumarate],retention of 14C-labeled metabolite on GPx1,GPx1 [14],retained on GPx1
same,Kd,GPx1 [14]; read-out: Kd value of the GPx1-fumarate interaction,75.5 ± 5.22 µM
same,activity of purified human GPx1,GPx1 [15],significantly increased
"O=C1c2ccccc2C(=O)c2c(O)c(O)cc(O)c21 [purpurin, reference compound]","potency and specificity for GDH1 inhibition in comparison of purpurin, R162 and EGCG",GDH1 [6],more potent and specific
same,inhibitory effect on GDH1 enzyme activity in vitro,GDH1 [6],dramatic inhibitory effects
same,Ki,"GDH1 [6]; recombinant, purified active GDH1, in vitro GDH activity assay",1900 ± 260 nM
same,Kd,GDH1 [16],11.5 ± 1.17 µM
same,cell permeability,Cell permeability,not cell permeable
